Source: patent US9763987B2, “Cyclic di-AMP induction of type I interferon” (priority 2010, dated 2017)

Key:
host IFN pathway = settings: delivered to the host cytosol; reference 29; cited from earlier work
[1] = test system: bone marrow derived macrophages (BMM); assay: IFN-β bio-assay: samples delivered to BMM cytosol by digitonin, type I IFN read with ISRE-L929 luciferase reporter cells; type: cell-based, mouse; settings: FIG. 3d
Method: Mouse bone marrow from 6-8 week old female mice was differentiated to bone marrow derived macrophages (BMM) as described previously (S3). Interferon responsive ISRE-L929 cells were cultured in ISRE media (DMEM, 2 mM glutamine, 1 mM pyruvate, 10% heat inactivated FBS, and penicillin-streptomycin). Induction of type-I interferon was assessed using BMMs plated in 96-well flat bottom tissue culture treated plates (10^5 cells/well) a minimum of 12 hours prior to use in BMM media (DMEM, 2 mM glutamine, 1 mM pyruvate, 10% CSF from 3T3 cells, and 20% heat inactivated FBS). Samples (10 μL) of L. monocytogenes supernatants, HPLC fractions, and cyclic di-AMP standard (Biolog Life Sciences Institute, […]) were mixed with a 10× volume of digitonin permeabilization solution (50 mM HEPES pH 7.0, 100 mM KCl, 3 mM MgCl2, 0.1 mM DTT, 85 mM Sucrose, 0.2% BSA, 1 mM ATP, 0.1 mM GTP, ±10 μg/mL Digitonin) (S4). Media was aspirated from the cells and replaced with 50 μL each sample mixture. Cells were incubated for 30 minutes at 37° C. […] Finally, 40 μL of luciferase substrate solution (20 mM Tricine, 2.67 mM MgSO4.7H2O, 0.1 mM EDTA, 33.3 mM DTT, 530 μM ATP, 270 μM acetyl CoA lithium salt, 470 μM luciferin, 5 mM NaOH, 265 μM magnesium carbonate hydroxide) was added to each well and luminescence was measured using a VICTOR3 luminometer (PerkinElmer). • 8. […]

WT and mutant BMMs = assay: IFN-β induction in various host strains (WT and knockout BMMs), ISRE L929 bioassay; type: cell-based, mouse; settings: 3 μM with digitonin, 6 hours; WT vs myd88-trif−/−, irf3−/−, mays−/− macrophages; parallel to L. monocytogenes (IRF3 and STING dependent, MyD88/Trif and MAVS independent); FIG. 9
Method: BMMs were differentiated as described previously (S3). For mays−/−macrophages, heterozygous mice were used as a control. WT and mutant BMMs were plated in 24-well plates ([…]) the evening prior to use. For infections, 2×10^6 bacteria from 30° C. overnight cultures were washed with PBS and added to each well containing 500 μL of BMM media. For c-di-AMP treatment, synthetic standard was dissolved in digitonin solution to a final concentration of 3 μM. Media was aspirated from cells and replaced with 200 μL of c-di-AMP/digitonin mix. From this point on infections and c-di-AMP samples were treated the same. At 30 minutes wells were aspirated and replaced with fresh BMM media. At 1 hour post infection gentamycin (50 μg/mL) was added. For LPS treatment, 100 ng of sonicated LPS stock solution (50 μg/mL) was added to appropriate wells containing 500 μL of BMM media. Supernatants from all wells were collected and analyzed by ISRE L929 bioassay for IFN-β activity at 6 hours. • 10. Supporting References • S1. D. A. Portnoy, P. S. Jacks, D. J. Hinrichs, Role of hemolysin for the intracellular growth of Listeria monocytogenes. J. Exp. Med. 167, 1459 (1988). • S2. L. Phan-Thanh, T. Gormon, A chemically defined minimal medium for the optimal culture of Listeria. Int. J. Food Microbiol. 35, 91 (1997). • S3. […]

| SMILES | activation of host IFN pathway (host IFN pathway) | IFN-β induction in macrophages ([1]; commercially available c-di-AMP delivered to the cytosol of murine BMMs) | IFN-β inducing activity after treatment with snake venom phosphodiesterase (SVPD) ([1]; sample treated with SVPD) | host signaling pathway required for detection (type-I IFN) (WT and mutant BMMs) | cell permeability (cells) | induction of inflammation (cells; added to the outside of cells) |
| --- | --- | --- | --- | --- | --- | --- |
| Nc1nc2c(ncn2[C@@H]2O[C@@H]3COP(=O)(O)O[C@H]4[C@@H](O)[C@H](n5cnc6c(=O)[nH]c(N)nc65)O[C@@H]4COP(=O)(O)O[C@H]3[C@H]2O)c(=O)[nH]1 [c-di-GMP] | specifically activates the host IFN pathway | – | – | – | – | – |
| Nc1ncnc2c1ncn2[C@@H]1O[C@@H]2COP(=O)(O)O[C@H]3[C@@H](O)[C@H](n4cnc5c(N)ncnc54)O[C@@H]3COP(=O)(O)O[C@H]2[C@H]1O [c-di-AMP, cyclic di-adenosine monophosphate] | – | dose-dependent response | abolished the activity | requires a parallel host-signaling pathway | not cell permeable | does not induce inflammation |
